Experimental findings from the OPERA property sets (Mansouri et al. 2018) are described below.

One may read the logP as a log measure of how a compound divides between an organic and an aqueous phase.

For the compound `COc1cccc2c1C(=O)c1c(O)c3c(c(O)c1C2=O)CC(O)(C(C)=O)CC3OC1CC(N2CCOCC2C#N)C(O)C(C)O1` (configuration not stated), the logP came out at 2.59. As for `CCCc1ccc(CC(=O)O)cc1`, the figure is 3; as for `O=C(NN1CC=CCC1)c1ccco1`, 0.81. As for `O=C1Nc2ccccc2CC1c1ccccc1` (configuration not stated), the figure is 2.93; as for `CCCCNC(=O)c1cc(Br)cc(C)c1O`, 4.21; as for `COc1ccc(C(=O)OCC2OC(n3cnc4c(OC)ncnc43)C2OC(=O)c2ccc(OC)cc2)cc1` (configuration not stated), 3.65.

Compound `COC(=O)c1nc(NCC(O)CO)cnc1[N+](=O)[O-]` (configuration not stated) came in with a logP of -0.1. Under `OC1(c2ccccc2Cl)CCCCC1n1cncn1` (configuration not stated) stands 2.68; under `O=C(NN1CC=CCC1)c1cccs1`, 1.88; under `CCOC1OC(CO)C(O)C(O)C1O` (configuration not stated), -2.28. As for `c1ccc(-c2ncn[nH]2)cc1`, the figure is 1.54; as for `CCN1CC(C(O)C(CC2CCCCC2)NC(=O)C(Cc2cnc[nH]2)NC(=O)C(CC(=O)N(C)CCOCOCCOC)Cc2ccccc2)OC1=O` (configuration not stated), 2.21; as for `CCCCCc1cc(OCCCCN)c2c(c1)OC(C)(C)C1CC=C(C)CC21` (configuration not stated), 8.38. Under `C#CCC(O)(CC#C)c1cccnc1` stands 1.29. Take `O=[N+]([O-])c1ccc(O)cc1O`: the logP is 1.05. As for `CCn1c(=O)[nH]c(=O)c2[nH]cnc21`, the figure is -0.11; as for `CCC1(CC)C(=O)N=C(OC(C)C)NC1=O`, 1.44.

`Cc1cc2c(ccc3ccc(=O)oc32)o1`: the logP was determined as 2.55. Compound `CCC1OC(=O)C(C)C(OC2CC(C)(OC)C(OC=O)C(C)O2)C(C)C(OC2OC(C)CC(N(C)C)C2O)C(C)(O)CC(C)C(=O)C(C)C(O)C1C` (configuration not stated) gave a logP of 3.05. Turning to `CCCCCc1cc(O)c2c(c1)OC(C)(C)[C@@H]1CCC(CO)=C[C@@H]21`, the logP amounted to 5.33. `CCOc1ccc(Cc2cnc(N)nc2N)cc1OCC` had a logP of 1.72. As for `CCCCC(CCCC)C(=O)O`, the figure is 3.2; as for `CCCCCc1cc(O)c2c(c1)OC(C)(C)C1CC=C(C)CC21` (configuration not stated), 7.41. Under `NNC(=O)c1ccnc(I)c1` stands 0.52; under `CC(=O)OCC1OC(n2ccc(N)nc2=O)C(OC(C)=O)C1OC(C)=O` (configuration not stated), -0.8; under `COc1ccc(COc2ccccc2C(N)=O)cc1`, 1.63. As for `C1CC2OC2CC1C1CO1` (configuration not stated), the figure is 0.44. Compound `CCCCC(CCC)C(=O)O` (configuration not stated) gave a logP of 3.01. The compound `COCC(O)Cn1cc(Br)nc1[N+](=O)[O-]` (configuration not stated) showed a logP of 0.46.

`CNC1CCc2ccccc2C1` (configuration not stated): the logP is 2.38. `CC(C)c1cccc(C(C)C)c1NC1=NCCN1` came in with a logP of 3.04. Under `Cc1c2ccccc2cc2ccccc12` stands 5.07; under `CCCCn1c(=O)n(C)c(=O)c2[nH]cnc21`, 1.29; under `CCOC(=O)C1=C(C)OC(=Cc2ccc(OC)cc2)C1=O`, 2.96.

`Nc1ncc(Cc2cc3c(cc2Br)OCO3)c(N)n1` returned a logP of 2.48. `c1ccc(-c2ccc(-c3ccccc3)cc2)cc1` came in with a logP of 6.03.

On to `CC(C)c1cccc(S(N)(=O)=O)c1`, for which the logP amounted to 1.81. Under `CC(=O)c1ccccc1Br` stands 2.28.

`Cn1nnnc1SCC1=C(C(=O)OCOC(=O)C(C)(C)C)N2C(=O)C(NC(=O)C(O)c3ccccc3)C2SC1` (configuration not stated) showed a logP of 0.85. As for `CCCC(=O)OCC(Cc1cncn1C)C(CC)C(=O)OCc1ccccc1` (configuration not stated), the figure is 3.78; as for `C=C1C(=O)OC2C=C(C)C3(O)C=CC(C)(CC(OC(=O)C(=CC)COC(C)=O)C12)O3` (configuration not stated), 1.19.

As for `Cc1cccc(C)c1NC(=O)CCCCCN`, the logP was found to be 1.29. On to `OC(Cn1ccnc1)(c1ccc(F)cc1)c1ccc(-c2ccccc2)cc1` (configuration not stated), for which the logP is 4.23. Under `CCCCOC(=O)COc1cc(Cl)c(Cl)cc1Cl` stands 4.81. `CCOC(=O)C(CC)(CC)C(=O)NC(N)=O` gave a logP of 1.45. Under `CCCCn1c(=O)[nH]c(=O)c2[nH]cnc21` stands 0.84. As for `CCCCCCCCCCCCCCCCCCCC(=O)O`, the logP was 9.29. `CCCCCCC(C)(C)c1cc(O)c2c(c1)OC(C)(C)C1CCC(C=O)=CC21` (configuration not stated) came in with a logP of 8.03. In turn, `Cc1cc(Cl)cc(C)c1NC1=NCCN1` returned a logP of 2.5.

In turn, `Cc1cccc(C2C(=O)c3ccccc3C2=O)c1` returned a logP of 3.46. Under `C=CCC(NC(=O)C(Cc1ccc(OC)cc1)NS(=O)(=O)N1CCOCC1)C(=O)NC(CC1CCCCC1)C(=O)C(F)(F)C(=O)NCCN1CCOCC1` (configuration not stated) stands 2.73; under `O=C(Cc1ccccc1)c1ccc2n1CCC2C(=O)O` (configuration not stated), 2.52; under `C=C1C(=O)OC2C1C(OC(=O)C=C(C)C)CC1=CC(CC3(C)OC23)OC1=O` (configuration not stated), 1.05.

Consider `O=C(CN1CCOCC1)NCc1ccccc1`, for which the logP was 0.67.

In the case of `Cc1ccc(C(O)(Cn2ccnc2)c2ccc(Br)cc2)cc1` (configuration not stated), the logP was 3.55.

`C#CC1(O)C(F)CC2C3CCc4cc(O)ccc4C3C(CC)CC21C` (configuration not stated) came in with a logP of 4.12. Under `COC1CC(OC2CCC3(C=O)C4CCC5(C)C(C6=CC(=O)OC6)CCC5(O)C4CCC3(O)C2)OC(C)C1O` (configuration not stated) stands 0.64; under `CC1OC(OC2C(O)CC(OC3C(O)CC(OC4CCC5(C)C(CCC6C5CCC5(C)C(C7=CC(=O)OC7)C(O)CC65O)C4)OC3C)OC2C)CC(O)C1O` (configuration not stated), 1.67; under `CCCCCCCC(C)(C)c1ccc(C2CCCC(O)C2)c(O)c1` (configuration not stated), 7.18. Compound `COC(=O)C1=C(C)NC(C)=C(C(=O)OCCN(C)Cc2ccccc2)C1c1cccc([N+](=O)[O-])c1` (configuration not stated) showed a logP of 3.82. Consider `CCCCc1ccc(CC(=O)O)cc1`, for which the logP is 3.25. Under `O=C1C2C3C=CC(C4C=CC43)C2C(=O)N1CCCCN1CCN(c2ncccn2)CC1` (configuration not stated) stands 1.79; under `CO[C@@]1(NC(=O)CSCC#N)C(=O)N2C(C(=O)O)=C(CSc3nnnn3C)CS[C@@H]21`, -0.6. As for `CCNC(=O)NS(=O)(=O)c1ccc(Cl)cc1`, the figure is 1.79; as for `COc1cccc2c1C(=O)c1c(O)c3c(c(O)c1C2=O)CC(O)(C(C)=O)CC3OC1CC(N2CCOCC2)C(O)C(C)O1` (configuration not stated), 2.31.

For the compound `Cc1cnc2n(c1=O)CCCC2`, the logP turned out to be 0.12.

The compound `CCNC(=O)c1cc(Cl)cc(C)c1O` gave a logP of 3.55. As for `CC(C)CCOC(=O)c1ccccc1`, the figure is 4.15; as for `O=CC1=CC=C2C(C(=O)O)CCN2c2cc(Br)ccc21` (configuration not stated), 3.6. As for `COc1ccccc1N1CCN(CCCNc2cc(=O)n(C)c(=O)n2C)CC1`, the figure is 1.6; as for `C=C1C(=O)OC2C1C(OC(=O)C(C)=CC)CC1(CO1)C1C(OC(C)=O)C=C(C)C21O` (configuration not stated), 0.76.

Regarding `CC(=O)Nc1nc(NCC(O)CO)c(Cl)nc1[N+](=O)[O-]` (configuration not stated), the logP turned out to be 0. `CCCCCCCCCCCCCc1ccc(O)cc1` gave a logP of 8.2.

For the compound `CCC(O)(C(N)=O)c1ccccc1` (configuration not stated), the logP was found to be 1.2. With `COC(=O)c1ccc(CN(C)N=O)cc1`, the logP turned out to be 1.21. The compound `COCOC(=O)C1N2C(=O)C(N3C(=O)C(c4ccc(O)cc4)NC3(C)C)C2SC1(C)C` (configuration not stated) had a logP of 0.3. Compound `c1ccc(-c2cc3ccccc3cn2)nc1` had a lipophilicity (logP) of 3.05.
